Tests used:
Eimeria tenella = assay: efficacy against coccidial infections in chickens (Table II); format: in vivo; conditions: for Ratio: lesion score treated / infected control; for % Weight Gain / Average Degree of Infection: chicks; for Average Degree of Infection: lesion score 0 to 4, six days
Experimental: (§1) Efficacy data for Antibiotic CP-63,517 and its salts against coccidial infections in chickens was obtained in the following fashion. Groups of 3-5 ten-day old SPF white leghorn cockerel chicks were fed a mash diet containing Antibiotic CP-63,517, its sodium and/or potassium salt, or the known agents Monensin or Stenorol uniformly dispersed therein. After being on this ration for 24 hours each chick was inoculated per os with oocysts of the particular species of Eimeria being tested. Other groups of 3-5 ten-day old chicks were fed a similar mash diet free of any test compound. They were also infected after 24 hours and served as infected controls. Yet another group of 3-5 ten-day old chicks were fed the mash diet free of any test compound and were not infected with coccidia. These served as normal controls. The results of treatment were evaluated after five days in the case of E. acervulina, and six days for other challenges.
(§2) ^1 The criteria used to measure anticoccidial activity consisted of
(§3) lesion scores of 0 to 4 for Eimeria tenella after J. E. Lynch, "A New
(§4) Method for the Primary Evaluation of Anticoccidial Activity", Am. J. Vet.
(§5) modification of the scoring system devised by J. Johnson and W. H. Reid,
(§6) "Anticoccidial Drugs. Lesion Scoring Techniques in Battery and Floor Pen
(§7) Experiments in Chicks", Exp. Parasit. 28: 30-36 (1970). A constant ratio
(§8) was established by dividing the lesion score of each treated group by the
(§9) lesion score of the infected control.

rumen fluid = assay: in vitro rumen technique, propionic acid production; set-up: species or system calf
Experimental: The value of animal feeds generally has been determined directly by feeding the animal. British Pat. No. 1,197,826 details an in vitro rumen technique whereby the changes occurring in feeds brought about by microorganisms are measured more readily and with great accuracy in the evaluation of animal feeds. This technique involves the use of an apparatus in which the digestive processes of the animals are conducted and studied in vitro. The animal feeds, rumen inoculum and various growth promotants are introduced into and withdrawn from a laboratory unit under carefully controlled conditions and the changes taken place are studied critically and progressively during the consumption of the feed by the microorganisms. […] The change in propionic acid content is expressed as percent of the propionic acid content found in the control rumen fluid. Long term in vivo feeding studies are used to show a reliable correlation between propionic acid increase in the rumen fluid and improved animal performance.
Rumen fluid is collected from a fistulated calf which is fed on a commercial fattening ration plus hay. The rumen fluid is immediately filtered through cheese cloth, and 10 ml added to a 50 ml conical flask containing 400 mg of standard substrate (68% corn starch +17% cellulose +15% extracted soybean meal), 10 ml of a pH 6.8 buffer and the test compound. The flasks are gassed with oxygen free nitrogen for about two minutes, and incubated in a shaking water bath at 39° C. for about 16 hours. All tests are conducted in triplicate.
After incubation, 5 ml of the sample is mixed with 1 ml of 25% metaphosphoric acid. After 10 minutes 0.25 ml of formic acid is added and the mixture centrifuged at 1500 RPM for 10 minutes. Samples are then analyzed by gas-liquid chromatography by the method of D. W. Kellog, J. Dairy Science, 52, 1690 (1969). Peak heights for acetic, propionic and butyric acids are determined for samples from untreated and treated incubation flasks.

Eimeria acervulina = assay: efficacy against coccidial infections in chickens (Table II); format: in vivo; conditions: 9 ppm in diet; for Ratio: lesion score treated / infected control; for % Weight Gain / Average Degree of Infection: chicks; for Average Degree of Infection: lesion score 0 to 3, five days
Experimental: as §1, §2, §3, §4, §5, §6, §7, §8, §9

[1] = 53 ppm in diet, replicate (in parentheses)
[2] = 120 ppm in diet, replicate (in parentheses)
[3] = 0.75 ppm in diet, replicate (in parentheses)
[4] = 3 ppm in diet, replicate (in parentheses)
[5] = 9 ppm in diet, replicate (in parentheses)

SMILES: CC[C@@]1([C@@H]2O[C@@H]([C@H]3O[C@@](O)(CO)[C@H](C)C[C@@H]3C)C[C@@H]2C)CC[C@H]([C@]2(C)CC[C@]3(C[C@H](O)[C@@H](C)[C@@H]([C@@H](C)[C@@H](OC)[C@H](C)C(=O)O)O3)O2)O1 [Monensin]
- Ratio (Eimeria tenella; 53 ppm in diet): 0.69
- Ratio (Eimeria tenella; [1]): 0.54
- Ratio (Eimeria tenella; 120 ppm in diet): 0.09
- Ratio (Eimeria tenella; [2]): 0.32
- % Weight Gain (Eimeria tenella; 53 ppm in diet): 92%
- Average Degree of Infection (Eimeria tenella; 53 ppm in diet): 2.3
- Average Degree of Infection (Eimeria tenella; [1]): 1.7
- % Weight Gain (Eimeria tenella; [1]): 99%
- % Weight Gain (Eimeria tenella; 120 ppm in diet): 71%
- Average Degree of Infection (Eimeria tenella; 120 ppm in diet): 0.3
- Average Degree of Infection (Eimeria tenella; [2]): 1.0
- % Weight Gain (Eimeria tenella; [2]): 68%
- increase in production of propionic acid over control (rumen fluid; 10 micrograms per milliliter (10 μg/ml), comparison with Monensin): about 20%

SMILES: CC[C@@H](C(=O)[C@@H](C)[C@@H](O)[C@H](C)[C@@H]1O[C@@H]([C@@H](CC)C(=O)O)CC[C@@H]1C)[C@H]1O[C@]2(C=C[C@@H](O)[C@]3(CC[C@@](C)([C@H]4CC[C@](O)(CC)[C@H](C)O4)O3)O2)[C@H](C)C[C@@H]1C [Salinomycin, reference compound]
- increase in propionic acid (rumen fluid; 10 μg/ml, comparison with Salinomycin): about 65%

SMILES: O=C(CC1NCCCC1O)Cn1cnc2cc(Br)c(Cl)cc2c1=O (centres unmarked) [Stenorol]
- Ratio (Eimeria acervulina): 0.0
- Ratio (Eimeria acervulina; replicate (in parentheses)): 0.0
- % Weight Gain (Eimeria acervulina): 48%
- Average Degree of Infection (Eimeria acervulina): 0.0
- Average Degree of Infection (Eimeria acervulina; replicate (in parentheses)): 0.0
- % Weight Gain (Eimeria acervulina; replicate (in parentheses)): 51%
- Ratio (Eimeria tenella; 0.75 ppm in diet): 0.51
- Ratio (Eimeria tenella; [3]): 0.73
- Ratio (Eimeria tenella; 3 ppm in diet): 0.0
- Ratio (Eimeria tenella; [4]): 0.0
- Ratio (Eimeria tenella; 9 ppm in diet): 0.0
- Ratio (Eimeria tenella; [5]): 0.0
- % Weight Gain (Eimeria tenella; 0.75 ppm in diet): 66%
- Average Degree of Infection (Eimeria tenella; 0.75 ppm in diet): 1.7
- Average Degree of Infection (Eimeria tenella; [3]): 2.3
- % Weight Gain (Eimeria tenella; [3]): 90%
- % Weight Gain (Eimeria tenella; 3 ppm in diet): 86%
- Average Degree of Infection (Eimeria tenella; 3 ppm in diet): 0.0
- Average Degree of Infection (Eimeria tenella; [4]): 0.0
- % Weight Gain (Eimeria tenella; [4]): 103%
- % Weight Gain (Eimeria tenella; 9 ppm in diet): 63%
- Average Degree of Infection (Eimeria tenella; 9 ppm in diet): 0.0
- Average Degree of Infection (Eimeria tenella; [5]): 0.0
- % Weight Gain (Eimeria tenella; [5]): 77%

Reference: patent publication US4552843A, “Process for producing an acidic polycyclic ether antibiotic by cultivation of a novel strain of Streptomyces endus subspecies aureus” (Pfizer Inc., priority 1984, dated 1985)
